Tests used:
[1] = target: T1, heparin-induced aggregated tau (aTau), full-length 2N4R human Tau (Homo sapiens, UniProt P10636); assay: In vitro fluorometric aTau binding assay; conditions: 0.04 μM aTau, serially diluted compound 10 to 0.00017 μM, 37° C. 1 hour, fluorescence
T1 construct: transformed with a full-length 2N4R tau expression plasmid; made in house; host or cells: E. coli BL21
Description: (§1) (A) Expression and purification of human Tau: 1 mM IPTG (Sangon Biotech, Cat. No A100487) was used to induce production of tau by bacteria (BL21, Invitrogen, Cat. No C600003) transformed with a full-length 2N4R tau expression plasmid. After 3 hours, cell pellet was resuspended in lysis buffer (100 mM PIPES, 1 mM EGTA, 1 mM MgSO4, pH 6.8) and lysed by sonication followed by centrifugation (15,000 rpm, 15 min, 4° C.). The supernatant was then placed in a boiling water bath for 20 min, followed by centrifugation (15,000 rpm, 15 min, 4° C.). Supernatant was loaded onto a Q-Sepharose® Fast Flow column (GE healthcare, Cat. No 17-0510-01), the flow-through fraction was loaded onto an SP-Sepharose® Fast Flow column (GE healthcare, Cat. No 17-0729-01), and tau protein was eluted with elution buffer (100 mM PIPES, 1 M NaCl, 1 mM EGTA, 1 mM MgSO4, 0.2 M NaCl, pH 6.8). Collected fractions of tau-containing eluates were pooled, concentrated and dialyzed against HEPES buffer (25 mM HEPES, 0.1 mM EDTA, 0.5 mM DTT, 100 mM NaCl, pH 7.2) and stored at −80° C. in small aliquots until use. Protein concentration was determined by UV absorption.
(§2) (B) Preparation of heparin-induced aggregated tau (aTau): 2 μM of tau prepared in 30 mM Tris-HCl, pH 7.5 buffer was incubated in tube with 15 μM heparin (Sigma, Cat. No H3149) at 37° C. for 24 hours.
(D) In vitro fluorometric aTau binding assays: 2 μM aTau was diluted to 0.04 μM with 30 mM Tris-HCl (pH 6.8), and then incubated with serially diluted compound (three-fold serial dilutions, from 10 to 0.00017 μM) in a 96-well plate (Corning, Cat. No 3573) at 37° C. for 1 hour. Fluorescence intensity (excitation/emission=370/500 nm) of APN-0729 was read by microplate spectrometer (EnSpire 2300, PerkinElmer). Compound Kd values were calculated using the following equation: Y=Bmax* X (Kd+X), where X is the concentration of compound; Y is the fluorescence signal of (compound+aTau)−(compound+DMSO); and Bmax is the maximum signal.

[2] = target: T2, Tau aggregates in P301L-Tau-FL-GFP HEK293 cells (Homo sapiens, UniProt P10636, P618L); assay: Tau degradation assay (APNmAb005 ELISA-based Tau aggregation assay); type: cell-based; conditions: 1 μM of compound, 24 hours, P301L-Tau-FL-GFP HEK293 cells seeded with rTg4510 brain lysate; read-out: Activity (reduction of tau aggregates)
T2 construct: express full-length human tau T40 (2N4R) carrying the P301L mutation with a GFP tag; expressed in transfected cells
Description: (A). Cell-based model of Tau inclusion formation: Six month old rTg4510 mouse brain lysates were used as the source of tau seeds, prepared as described in Example 26 above. P301L-Tau-FL-GFP HEK293 cells represent HEK293 cells express full-length human tau T40 (2N4R) carrying the P301L mutation with a GFP tag (P301L-Tau-FL-GFP). 1×10^6 of P301L-Tau-FL-GFP HEK293 cells were cultured on a 6-well plate in culture medium containing DMEM/F-12 (Gibco) supplemented with 10% fetal bovine serum (FBS) (Gibco), 1% Penicillin-Streptomycin (Gibco) and 0.5 mg/ml geneticin (Thermo Fisher Scientific) for 24 hours to reach 70-90% confluency, indicating the cells were ready for transfection. 50 μg of 6-month-old rTg4510 mouse brain lysate was diluted in 400 μL of serum free medium and mixed with 16 μL of lipofectamine 3000 reagent (Thermo Fisher Scientific) diluted in 400 μl of serum free medium. A solution mixture of rTg4510 brain lysate and lipofectamine 3000 was incubated at room temperature for 25 min. The culture media were removed, and then a solution mixture of rTg4510 lysate and lipofectamine 3000 was added to the cells for transfection. The solution mixture was incubated at room temperature for five hours, followed by medium change to 10% fetal bovine serum (FBS). After two-day incubation, Tau aggregates (Tau spots) were induced and images were acquired by ImageXpress Micro Confocal high-content imaging system (Molecular Devices) as described in Example 52 above. Analysis was performed by two customized modules in MetaXpress software (Molecular Devices) for aggregated tau analysis. Output included cell numbers, numbers of tau spots, average intensity of tau spots, and average size of tau spots.
(B). Compound treatment: 100 μL of 3×10^4 cells comprising Tau aggregates, prepared as described above in step (A), were plated on a 96-well plate coated with poly-D-lysine (BD Biosciences) and cultured for 24 hours. Compounds to be tested were dissolved in culture medium containing 0.1% DMSO. Each of test compounds in the concentration of 1, 0.2 and 0.04 μM was added to the cells comprising Tau aggregates and incubated at 37° C. for 24 hours. After that, culture medium was removed, cells were washed with PBS solution and then lysed using 30 μL of lysis buffer (PBS containing 0.3% Triton X-100 and 400 mM NaCl) for one hour at 4° C., and then cell lysate was diluted by 170 μl of PBS containing 400 mM NaCl. Cell lysate was filtrated by a […] filtration plate (Pall) and applied for Tau aggregation assay.
(C). Control cell lysate: control cell lysate was collected from non-seeded cells.
(D). ELISA-based Tau aggregation assay: APNmAb005 ELISA kit for Tau aggregation assay was designed and developed to detect abnormal tau aggregates in buffered solution or cell lysate by using anti-Tau APNmab005 as capture and detection antibody. This antibody is a highly specific antibody bound to human tau aggregates accumulated in mammalian cells. APNmAb005 is recited in PCT Patent Application No. PCT/M2020/057415, filed Aug. 5, 2020, which is incorporated herein by reference.
0.15 μg of APNmAb005 in 100 mM sodium carbonate buffer (pH 9.6) was coated on a high-binding polystyrene 96-well microplate (Greiner Bio-One) at 4° C. overnight. The microplate was washed with PBS followed by treatment with Intercept (PBS) blocking buffer (LI-COR) at room temperature for 2 hours. After that, the microplate was washed with PBS, and then the cell lysate with compound treatment, prepared as described above in step (C), was added into each well of the microplate and incubated at room temperature for 2 hours. The microplate was washed with PBS and then incubated with HRP-conjugated secondary antibody APNmAb005 at room temperature for 3 hours. HRP-conjugated secondary antibody APNmAb005 was prepared using HRP conjugation kit (Abcam,ab102890). The microplate was then washed with PBS and incubated with 100 μL of horseradish peroxidase (HRP) substrate at room temperature. […]

[3] = target: T1, heparin-induced aggregated tau (aTau), full-length 2N4R human Tau; assay: PBB5 competition assay; type: binding; conditions: 0.12 μM aTau; for IC50: 0.1 μM PBB5, 37° C. 1 hour, PBB5 fluorescence 530/690 nm; for Emax: 0.1 μM PBB5, compound up to 10 μM, read-out: Competition Assay with PBB5: Bmax (%)
Description: as §1, §2
(E) PBBS competition assay: 2 μM of aTau was diluted to 0.12 μM by […] (pH 6.8) and then incubated with 0.1 μM 2-(4-(2-(methylamino)pyridine-5-yl)-1,3-butadiene-1-yl)benzothiazole-6-ol (PBB5) and serially diluted compound (three-fold serial dilution, from 10 to 0.00017 μM) in a 96-well plate (Corning, Cat. No 3573) at 37° C. for 1 hour. Fluorescence intensity (excitation/emission=530/690 nm) of PBB5 was read by microplate spectrometer (EnSpire 2300, PerkinElmer). Percentage of competition was calculated using the following equation: (Max−well of compound alone)/(Max−Min)*100%, where Max=(Tau+PBB5) signals−(buffer+PBB5) signals; and Min=(buffer+PBB5) signals−(buffer+PBB5) signals.
The IC50 value of each compound was calculated with GraphPad Prism software using the “4 Parameter Logistic Model or Sigmoidal Dose-Response Model”:
Y=Bottom+(Top−Bottom)/(1+(IC50/×)^HillSlope)

T1 sequence (P10636 1-441 isoform P10636-8): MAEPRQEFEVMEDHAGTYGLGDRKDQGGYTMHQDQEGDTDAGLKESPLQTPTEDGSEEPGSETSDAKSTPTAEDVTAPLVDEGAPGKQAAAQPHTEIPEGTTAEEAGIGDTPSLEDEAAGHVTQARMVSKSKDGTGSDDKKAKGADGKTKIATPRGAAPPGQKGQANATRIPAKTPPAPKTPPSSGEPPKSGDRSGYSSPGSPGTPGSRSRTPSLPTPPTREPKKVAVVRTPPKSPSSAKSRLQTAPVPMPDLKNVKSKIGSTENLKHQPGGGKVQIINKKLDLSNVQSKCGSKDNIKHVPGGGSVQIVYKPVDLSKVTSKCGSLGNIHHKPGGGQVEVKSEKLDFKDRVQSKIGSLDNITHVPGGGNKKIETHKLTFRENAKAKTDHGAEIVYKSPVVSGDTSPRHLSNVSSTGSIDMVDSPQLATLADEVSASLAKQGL
T2 sequence (P10636 1-441 isoform P10636-8 P301L): as the sequence (P10636 1-441 isoform P10636-8) above, with P301L counted along it

SMILES	Kd [1] [µM]	inhibition at 1 µM [2] [%]	IC50 [3] [µM]	Emax [3] [%]
CN(C)c1ccc2nc(-c3ccc(-c4ccc(NCCOCCOCCOCCOCCOCCOc5ccc6c(c5)CN(C5CCC(=O)NC5=O)C6=O)nc4)cc3)sc2c1 (centres unmarked) [Compound 160383, 3-[6-[2-[2-[2-[2-[2-[2-[[5-[4-[6-(dimethylamino)-1,3-benzothiazol-2-yl]-phenyl]pyridin-2-yl]amino]ethoxy]ethoxy]ethoxy]ethoxy]-ethoxy]ethoxy]-3-oxo-1H-isoindol-2-yl]piperidine-2,6-dione]	0.55	< 10	0.27	80
CN(C)c1ccc(-c2ccc(-c3nc4ccc(NCCOCCOCCOCCOCCOCCOc5ccc6c(c5)C(=O)N(C5CCC(=O)NC5=O)C6=O)cc4s3)cc2)cn1 (centres unmarked) [Compound 159985, 2-[2,6-bis(oxo)piperidin-3-yl]-5-[2-[2-[2-[2-[2-[2-[[2-[4-[6-(dimethylamino)-pyridin-3-yl]phenyl]-1,3-benzothiazol-6-yl]amino]ethoxy]ethoxy]ethoxy]ethoxy]ethoxy]-ethoxy]isoindole-1,3-dione]	0.1	< 10	0.32	71
CN(C)c1ccc(-c2ccc(-c3cn4cc(OCCOCCOCCOCCOCCOCCOc5ccc6c(c5)C(=O)N(C5CCC(=O)NC5=O)C6=O)ccc4n3)cc2)c(F)n1 (centres unmarked) [Compound 160744, 2-[2,6-bis(oxo)piperidin-3-yl]-5-[2-[2-[2-[2-[2-[2-[2-[4-[6-(dimethyl-amino)-2-fluoro-pyridin-3-yl]phenyl]imidazo[1,2-a]pyridin-6-yl]oxyethoxy]ethoxy]ethoxy]-ethoxy]ethoxy]ethoxy]isoindole-1,3-dione]	0.15	10 to 20	5.96	113
CN(C)c1ccc(-c2ccc(-c3nc4ccc(NCCOCCOCCOCCOCCOCCOc5ccc6c(c5)CN(C5CCC(=O)NC5=O)C6=O)cc4s3)cc2)cn1 (centres unmarked) [Compound 160273, 3-[6-[2-[2-[2-[2-[2-[2-[[2-[4-[6-(dimethylamino)pyridin-3-yl]phenyl]-1,3-benzothiazol-6-yl]amino]ethoxy]ethoxy]ethoxy]ethoxy]ethoxy]ethoxy]-3-oxidanylidene-1H-isoindol-2-yl]piperidine-2,6-dione]	0.47	< 10	0.27	59
CN(C)c1ccc(-c2ccc(-c3nc4ccc(NCCOCCOc5ccc6c(c5)C(=O)N(C5CCC(=O)NC5=O)C6=O)cc4s3)cc2)cn1 (centres unmarked) [Compound 160219, 2-[2,6-bis(oxo)piperidin-3-yl]-5-[2-[2-[[2-[4-[6-(dimethylamino)pyridin-3-yl]phenyl]-1,3-benzothiazol-6-yl]amino]ethoxy]ethoxy]isoindole-1,3-dione]	0.11	< 10	0.15	69

From US20220354835A1, “COMPOUNDS FOR DEGRADING TAU PROTEIN AGGREGATES AND USES THEREOF” (Aprinoia Therapeutics Limited, priority 2019, published 2022)
